Biological target: T1, HMOX1 (heme oxygenase 1) (Homo sapiens, UniProt P09601)
T1 sequence (P09601 1-288): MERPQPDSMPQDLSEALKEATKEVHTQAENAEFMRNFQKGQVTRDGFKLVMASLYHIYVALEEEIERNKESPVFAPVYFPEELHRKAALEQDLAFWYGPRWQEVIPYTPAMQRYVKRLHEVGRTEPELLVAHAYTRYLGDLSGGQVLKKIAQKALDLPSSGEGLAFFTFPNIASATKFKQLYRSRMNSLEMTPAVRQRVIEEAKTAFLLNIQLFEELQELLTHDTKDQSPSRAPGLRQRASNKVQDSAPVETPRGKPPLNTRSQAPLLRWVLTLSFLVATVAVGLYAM
Experiment: SPR ([…] SIL); supported by CETSA and DARTS
Type: binding

COc1cc(C2Oc3cc([C@H]4Oc5cc(O)cc(O)c5C(=O)[C@@H]4O)ccc3OC2CO)ccc1O (stereo partly shown) [SIL, Silibinin]
Kd: 46 µM

From article PMC11655547, “Dual functions of silibinin in attenuating aortic dissection via regulating iron homeostasis and endoplasmic reticulum stress against ferroptosis” (Cell Death & Disease, 2024)
